Measured values as given in publication PMC4277619, “Design, Synthesis and Cytotoxicity Evaluationof New 1,2-diaryl-4, 5, 6, 7-Tetrahydro-1H-benzo[d] Imidazolesas Tubulin Inhibitors” (Iranian Journal of Pharmaceutical Research : IJPR, 2015).

Experiments:
[1] = system: Fibroblast; experiment: MTT assay, cytotoxicity against normal fibroblast cells; format: cell-based; settings: Homo sapiens, 24 h incubation
Protocol: (§1) Fibroblast, MCF7 (human breast cancer), HEPG2 (human liver carcinoma), A549 (human lung cancer) and T47D (human breast cancer) cell lines were purchased from Pasteur Institute, Tehran, Iran. The cells were grown in RPMI1640 medium at 37 °C under 5% CO2 supplemented with 10% heat inactivated fetal bovine serum (FBS), 100 U/mL penicillin and 100 µg/mL streptomycin. Cell viability was evaluated using MTT method which is based on the reduction of 3-(4,5-dimethylthiazol-2-yl)-2,5-diphenyltetrazolium bromide (MTT) dye to purple formazan crystals by mitochondrial succinate dehydrogenase enzyme in living cells. The cells were seeded into 96-well plates at a concentration of 6000 cells/well and allowed to incubate for 24 h. The medium was then discarded and different concentrations of the test compounds dissolved in complete medium, were added to each well. After further incubation for 24 h at 37 °C, the medium was aspirated and 100 µL MTT (2 mg/mL) was added to the wells and incubated for 3 h at 37 °C. The produced formazan crystals were dissolved in 100 µL of DMSO. Plates were incubated for 20 min at 37 °C and the optical densities were read at 570 nm with a reference wavelength of 630 nm as background using a spectrophotometer plate reader (Infinite® M200, TECAN). Colchicine was used as positive control and DMSO as the solvent of the test compounds and its final concentration was less than 0.2%. IC50 was calculated by calibration curve using Prism software. All the tests were performed in triplicates.

[2] = system: T47D; experiment: MTT assay, cytotoxicity against T47D breast cancer cells; format: cell-based, human; settings: for IC50: Homo sapiens, T47D cells, 24 h incubation, MTT; for SI T47D: selectivity index = IC50 Fibroblast / IC50 T47D
Protocol: as §1

[3] = system: MCF-7; experiment: MTT assay, cytotoxicity against MCF-7 breast cancer cells; format: cell-based, human; settings: for IC50: Homo sapiens, MCF7, MCF-7 cells, 24 h incubation, MTT; for SI MCF-7: selectivity index = IC50 Fibroblast / IC50 MCF-7
Protocol: as §1

[4] = system: HEPG2; experiment: MTT assay, cytotoxicity against HEPG2 liver carcinoma cells; format: cell-based, human; settings: for IC50: Homo sapiens, HEPG2 cells, 24 h incubation, MTT; for SI HEPG2: selectivity index = IC50 Fibroblast / IC50 HEPG2
Protocol: as §1

[5] = system: A549; experiment: MTT assay, cytotoxicity against A549 lung cancer cells; format: cell-based, human; settings: for IC50: Homo sapiens, A549 cells, 24 h incubation, MTT; for SI A549: selectivity index = IC50 Fibroblast / IC50 A549
Protocol: as §1

SMILES: COc1ccc(-n2c(-c3cc(OC)c(OC)c(OC)c3)nc3c2CCCC3)cc1 [Compound 7a, 1-(4-Methoxyphenyl)-2-(3,4,5-trimethoxyphenyl)-4,5,6,7-tetrahydro-1H-benzoimidazole]
- IC50 [1]: 28.5 µM
- IC50 [2]: 41.1 µM
- SI T47D [2]: 0.69
- melting point: 110 to 111 °C
- IC50 [3]: 54.8 µM
- SI MCF-7 [3]: 0.52
- IC50 [4]: 22.5 µM
- SI HEPG2 [4]: 1.26
- IC50 [5]: 83.6 µM
- SI A549 [5]: 0.34

SMILES: COc1cccc(-n2c(-c3cc(OC)c(OC)c(OC)c3)nc3c2CCCC3)c1 [Compound 7b, 1-(3-Methoxyphenyl)-2-(3,4,5-trimethoxyphenyl)-4,5,6,7-tetrahydro-1H-benzoimidazole]
- IC50 [1]: > 100 µM
- IC50 [2]: > 100 µM
- IC50 [3]: > 100 µM
- IC50 [4]: > 100 µM
- IC50 [5]: 30.4 µM

SMILES: COc1cc(-c2nc3c(n2-c2ccc(O)cc2)CCCC3)cc(OC)c1OC [Compound 7c, 4-[2-(3,4,5-Trimethoxyphenyl)-4,5,6,7-tetrahydro-1H-benzoimidazole-1-yl]-phenol]
- IC50 [1]: 80.8 µM
- IC50 [2]: 41.2 µM
- SI T47D [2]: 2
- melting point: 259 to 260 °C
- IC50 [3]: > 100 µM
- IC50 [4]: 19.6 µM
- SI HEPG2 [4]: 4.11
- IC50 [5]: > 100 µM

SMILES: COc1cc(-c2nc3c(n2-c2ccc(F)cc2)CCCC3)cc(OC)c1OC [Compound 7d, 1-(4-Fluorophenyl)-2-(3,4,5-trimethoxyphenyl)-4,5,6,7-tetrahydro-1H-benzoimidazole]
- IC50 [1]: 59.5 µM
- IC50 [2]: 30 µM
- SI T47D [2]: 2
- melting point: 152 to 154 °C
- IC50 [3]: 62.3 µM
- SI MCF-7 [3]: 0.95
- IC50 [4]: 19.4 µM
- SI HEPG2 [4]: 3.06
- IC50 [5]: 86.5 µM
- SI A549 [5]: 0.68

SMILES: COc1cc(-c2nc3c(n2-c2ccc(Cl)cc2)CCCC3)cc(OC)c1OC [Compound 7e, 1-(4-Chlorophenyl)-2-(3,4,5-trimethoxyphenyl)-4,5,6,7-tetrahydro-1H-benzoimidazole]
- IC50 [1]: 54 µM
- IC50 [2]: 34.5 µM
- SI T47D [2]: 1.6
- melting point: 157 to 158 °C
- IC50 [3]: 36.4 µM
- SI MCF-7 [3]: 1.48
- IC50 [4]: 15.6 µM
- SI HEPG2 [4]: 3.46
- IC50 [5]: 87 µM
- SI A549 [5]: 0.62

SMILES: COc1cc(-c2nc3c(n2-c2cccc(Cl)c2)CCCC3)cc(OC)c1OC [Compound 7f, 1-(3-Chlorophenyl)-2-(3,4,5-trimethoxyphenyl)-4,5,6,7-tetrahydro-1H-benzoimidazole]
- IC50 [1]: 87.3 µM
- IC50 [2]: 58.6 µM
- SI T47D [2]: 1.5
- IC50 [3]: 77.9 µM
- SI MCF-7 [3]: 1.12
- IC50 [4]: 43.8 µM
- SI HEPG2 [4]: 2
- IC50 [5]: > 100 µM
